In paper PMC12207910 (European journal of pharmaceutical sciences : official …, 2024):
In brackets after ≈: the same amount, converted by molar mass. Read-outs that look alike come from different tables or passages of the source.

Assays:
[1] = tested on: C. albicans (ATCC 60193); test: microbe, parasite or virus in culture; format: cell-based; conditions: Candida albicans
[2] = tested on: C. albicans (ATCC 60193); test: Kill kinetics assay; format: cell-based; conditions: MIC and 4×MIC, compared to 3b and 4b
[3] = tested on: C. krusii (ATCC 6258); test: organism not typed; conditions: read-out: MIC C. krusii (ATCC 6258)
[4] = tested on: C. albicans (ATCC 60193); test: microbe, parasite or virus in culture; conditions: Candida albicans, ATCC60193, read-out: MIC C. albicans (ATCC 60193)
[5] = tested on: C. albicans (ATCC 10132); test: microbe, parasite or virus in culture; conditions: Candida albicans, ATCC10132, read-out: MIC C. albicans (ATCC 10132)
[6] = tested on: Enterococcus faecium (ATCC 27270); test: microbe, parasite or virus in culture; conditions: ATCC27270, read-out: MIC Enterococcus faecium (ATCC 27270)
[7] = tested on: Staphylococcus pneumoniae (ATCC 49619); test: microbe, parasite or virus in culture; conditions: ATCC49619, read-out: MIC Staphylococcus pneumoniae (ATCC 49619)

| MIC ([1]; ATCC60193, read-out: MIC CaCl2) | MIC ([1]; ATCC60193, read-out: MIC Control) | MIC ([1]; ATCC60193, read-out: MIC FBS (25%)) | MIC ([1]; ATCC60193, read-out: MIC KCl) | MIC ([1]; ATCC60193, read-out: MIC MgCl2) | MIC ([1]; ATCC60193, read-out: MIC NH4Cl) | MIC ([1]; ATCC60193, read-out: MIC NaCl) | MIC [3] | MIC [4] | MIC [5] | SMILES | fungicidal effect in kill kinetics [2] | MIC [6] | MIC [7] |
| --- | --- | --- | --- | --- | --- | --- | --- | --- | --- | --- | --- | --- | --- |
| 1.5 µg/mL (≈ 4.9 µM) | 1.5 µg/mL (≈ 4.9 µM) | 1.5 µg/mL (≈ 4.9 µM) | 1.5 µg/mL (≈ 4.9 µM) | 1.5 µg/mL (≈ 4.9 µM) | 1.5 µg/mL (≈ 4.9 µM) | 1.5 µg/mL (≈ 4.9 µM) | 0.7 µg/mL (≈ 2.29 µM) | 1.5 µg/mL (≈ 4.9 µM) | 0.7 µg/mL (≈ 2.29 µM) | OC(Cn1cncn1)(Cn1cncn1)c1ccc(F)cc1F [Fluconazole] | mild fungicidal effect | – | – |
| – | – | – | – | – | – | – | – | – | – | CN[C@H](CC(C)C)C(=O)N[C@H]1C(=O)N[C@@H](CC(N)=O)C(=O)N[C@H]2C(=O)N[C@H]3C(=O)N[C@H](C(=O)N[C@H](C(=O)O)c4cc(O)cc(O)c4-c4cc3ccc4O)[C@H](O)c3ccc(c(Cl)c3)Oc3cc2cc(c3O[C@@H]2O[C@H](CO)[C@@H](O)[C@H](O)[C@H]2O[C@H]2C[C@](C)(N)[C@H](O)[C@H](C)O2)Oc2ccc(cc2Cl)[C@H]1O [Vancomycin] | – | 1.5 µg/mL (≈ 1.04 µM) | 3.1 µg/mL (≈ 2.14 µM) |
